Patent US6603046B1, “Bis-aromatic a,β-unsaturated ketones” (Lica Pharmaceuticals A/S, priority 1992, dated 2003)
Read-outs that look alike come from different tables or passages of the source.

Assays:
L. major promastigotes = L. major promastigotes from 4-days cultures, 3H-thymidine uptake (Examples 5, 14); assay type: cell-based, Leishmania major; conditions: for inhibition at 0.5 µg/mL / inhibition at 1 µg/mL / inhibition at 5 µg/mL / inhibition at 10 µg/mL / inhibition at 20 µg/mL: Leishmania major; for inhibition at 0.5 µg/mL: 0.5 μg/ml; for inhibition at 1 µg/mL: 1 μg/ml; for inhibition at 5 µg/mL: 5 μg/ml; for inhibition at 20 µg/mL: 20 μg/ml
Method: Parasite cultures. The same parasite culture as described in Example 4. Promastigotes were harvested on day 4 of the culture and used for the parasiticidal assay.
Effect on promastigotes. […] Following incubation, […] of ^3H-thymidine was added to each well and further incubated for 18 hrs. Promastigotes were then harvested on filter paper by means of a cell harvester (Skatron, Lierbyen, Norway), extensively washed with distilled water and counted in a scintillation counter (Minaxi Ti-Carb 4000, United Technologies, Packard, USA).
L. major promastigotes. The L. major promastigotes were prepared as described in Example 4 and harvested after 4 days.

human lymphocytes = assay: Lymphocyte Proliferation Assay, 3H-thymidine incorporation (Example 13); conditions: for inhibition at 0.5 µg/mL / inhibition at 1 µg/mL / inhibition at 5 µg/mL / inhibition at 10 µg/mL: Homo sapiens, Lymphocyte
[1] = read-out: percentage inhibition of 3H-thymidine uptake (mean ± SEM), Table 5.1
[2] = read-out: percentage inhibition of 3H-thymidine uptake (mean ± SEM), Table 5.1, 10 μg/ml
[3] = read-out: inhibition of lymphocytes (lower figure)
[4] = Table 14.1, read-out: percentage inhibition of promastigotes (upper figure)
[5] = Table 14.1, 10 μg/ml, read-out: percentage inhibition of promastigotes (upper figure)

| Structure (SMILES) | inhibition at 0.5 µg/mL (human lymphocytes; [3]) | inhibition at 1 µg/mL (human lymphocytes; [3]) | inhibition at 5 µg/mL (human lymphocytes; [3]) | inhibition at 10 µg/mL (human lymphocytes; [3]) | inhibition at 0.5 µg/mL (L. major promastigotes; [4]) | inhibition at 1 µg/mL (L. major promastigotes; [4]) | inhibition at 5 µg/mL (L. major promastigotes; [4]) | inhibition at 10 µg/mL (L. major promastigotes; [5]) | further results |
| --- | --- | --- | --- | --- | --- | --- | --- | --- | --- |
| COCCOCOc1ccc(C(=O)/C=C/c2ccc(OC)cc2OC)cc1 |  |  |  |  |  |  |  |  | inhibition at 0.5 µg/mL (L. major promastigotes; [1]): 20%; inhibition at 1 µg/mL (L. major promastigotes; [1]): 14%; inhibition at 5 µg/mL (L. major promastigotes; [1]): 31%; inhibition at 10 µg/mL (L. major promastigotes; [2]): 60.5 ± 5.6% |
| O=C(/C=C/c1ccc(O)c(O)c1)c1ccc(O)cc1O | 0% | 1% | 12% | 51% | 7% | 8% | 4.2% | 10.6% |  |
| O=C(/C=C/c1ccccc1)c1ccc(F)cc1 |  |  |  |  |  |  | 88% | 99% |  |
| COc1cc(OC)c(/C=C/C(=O)c2ccc(O)cc2)c(OC)c1 | 0% | 0% | 48% | 63.6% | 25 ± 9.5% | 25.6 ± 10.9% | 23.6 ± 10.9% | 25.1 ± 17.3% |  |
| COc1ccc(/C=C/C(=O)c2ccc(OC)cc2)cc1 | 0% | 0% | 0% | 0% | 11.7 ± 9.2% | 8.3 ± 4.6% | 35.6 ± 23.4% | 51.8 ± 15.8% |  |
| C=CCOc1ccc(C(=O)/C=C/c2ccccc2OC)cc1 | 0% | 0% | 1.1% | 80.1% | 20.9 ± 7.7% | 25.8 ± 15.3% | 52.8 ± 19.1% | 76.6 ± 22.4% |  |
| COc1ccc(/C=C/C(=O)c2ccccc2OCC=C(C)C)c(OC)c1 | 7.1% | 6.6% | 8.7% | 35.9% | 4.3% | 1.8% | 49% | 83.2% |  |
| C=CCOc1ccc(C(=O)/C=C/c2c(OC)cc(OC)cc2OC)cc1 | 8% | 12% | 24% | 48% | 25 to 44% | 15 to 46% | 14 to 50% | 22 to 49% |  |
| C=CCOc1ccc(C(=O)/C=C/c2cc(OC)c(OC)c(OC)c2)cc1 | 4% | 4% | 38% | 98% | 11 to 45% | 16 to 47% | 44 to 60% | 86 to 91% |  |
| C=CCOc1ccc(C(=O)/C=C/c2cc(OC)c(OC)cc2OC)cc1 | 0% | 0% | 0% | 27.6% | 24 ± 12% | 23.8 ± 12.5% | 23.2 ± 12.8% | 28.8 ± 16% |  |
| COCCOCOc1ccc(C(=O)/C=C/c2ccc(OCC=C(C)C)cc2OC)cc1 | 0% | 8.1% | 14.1% | 28.3% | 11.5% | 14% | 33.1% | 61.5% |  |
| COc1ccc(/C=C/C(=O)c2ccc(OCOC(=O)C(C)(C)C)cc2)c(OC)c1 | 7.1% | 8.2% | 9% | 32.7% | 3.9% | 0% | 7.9% | 28.6% |  |
| O=C(c1ccccc1)C1OC1c1ccccc1 (stereo not drawn) | 0% | 0% | 2% | 85.4% | 28.4 ± 13% | 33.4 ± 15.4% | 73.2 ± 17.8% | 88 ± 7.5% |  |
| COc1ccc(CCC(=O)c2ccco2)c(OC)c1 | 3.6% | 11.7% | 33.6% | 41.9% | 9.5% | 9.4% | 55.1% | 89.6% |  |
| COc1ccc(CCC(=O)c2ccc[nH]2)c(OC)c1 | 10% | 2% | 20% | 41.9% | 0.6% | 9.4% | 18.5% | 40.6% |  |
| COc1ccc(CCC(=O)c2ccc(O)cc2)c(OC)c1 [3-(2,4-dimethoxyphenyl)-1-(4-hydroxyphenyl)propan-1-on, reference compound] |  |  |  |  |  |  |  |  | activity against Leishmania parasites in vitro (L. major promastigotes): very low activity |
| O=C(/C=C/c1ccccc1)c1ccccc1 [chalcone, reference compound] |  |  |  |  |  |  |  |  | toxicity against human lymphocytes (human lymphocytes): extremely high toxicity; activity against Leishmania parasites in vitro (L. major promastigotes): very high activity |
| O=C(/C=C/c1ccccc1)c1ccc(O)cc1 [drawing 53] |  |  |  |  |  |  |  |  | inhibition at 1 µg/mL (L. major promastigotes; [1]): 35.9%; inhibition at 5 µg/mL (L. major promastigotes; [1]): 70.8%; inhibition at 10 µg/mL (L. major promastigotes; [2]): 82.8%; inhibition at 20 µg/mL (L. major promastigotes; [1]): 91.9 ± 2.1% |
| O=C(/C=C/c1ccc(O)cc1)c1ccccc1 [drawing 54] |  |  |  |  |  |  |  |  | inhibition at 1 µg/mL (L. major promastigotes; [1]): 39.1%; inhibition at 5 µg/mL (L. major promastigotes; [1]): 70.1%; inhibition at 10 µg/mL (L. major promastigotes; [2]): 84.5%; inhibition at 20 µg/mL (L. major promastigotes; [1]): 94.3 ± 1.6% |
| COc1ccc(/C=C/C(=O)c2ccc(O)cc2)c(OC)c1 [drawing 55] |  |  |  |  |  |  |  |  | inhibition at 0.5 µg/mL (L. major promastigotes; [1]): 19.4%; inhibition at 1 µg/mL (L. major promastigotes; [1]): 27.3%; inhibition at 5 µg/mL (L. major promastigotes; [1]): 61.8%; inhibition at 10 µg/mL (L. major promastigotes; [2]): 91.9 ± 4.6% |
| C=CCOc1ccc(C(=O)/C=C/c2ccc(OC)cc2OC)cc1 [drawing 56] |  |  |  |  |  |  |  |  | inhibition at 0.5 µg/mL (L. major promastigotes; [1]): 7.5%; inhibition at 1 µg/mL (L. major promastigotes; [1]): 17.5%; inhibition at 5 µg/mL (L. major promastigotes; [1]): 64.5%; inhibition at 10 µg/mL (L. major promastigotes; [2]): 84.3 ± 3.5% |
| COCOc1ccc(C(=O)/C=C/c2ccc(OC)cc2OC)cc1 [drawing 58] |  |  |  |  |  |  |  |  | inhibition at 0.5 µg/mL (L. major promastigotes; [1]): 8.5%; inhibition at 1 µg/mL (L. major promastigotes; [1]): 18.1%; inhibition at 5 µg/mL (L. major promastigotes; [1]): 56.3%; inhibition at 10 µg/mL (L. major promastigotes; [2]): 65 ± 5.9% |
| COc1cc(/C=C/C(=O)c2ccc(O)cc2O)ccc1O [drawing 59] |  |  |  |  |  |  |  |  | inhibition at 0.5 µg/mL (L. major promastigotes; [1]): 7.8%; inhibition at 1 µg/mL (L. major promastigotes; [1]): 14.3%; inhibition at 5 µg/mL (L. major promastigotes; [1]): 66.7%; inhibition at 10 µg/mL (L. major promastigotes; [2]): 83.3 ± 4.6% |
| O=C(/C=C/c1ccccc1)c1ccccc1 [drawing 60] | 2% | 7.3% | 91% | 100% | 21.6% | 34.8% | 91.9% | 97.3% |  |
| O=C(/C=C/c1ccc(O)cc1)c1ccc(O)cc1 [drawing 63] | 0% | 0% | 96.3% |  | 22.5 ± 10% | 26.6 ± 7.6% | 34.6 ± 10.5% |  | inhibition at 10 µg/mL (human lymphocytes; read-out: inhibition of lymphocytes (lower figure), response to PHA, 10 μg/ml): 94.8%; inhibition at 10 µg/mL (L. major promastigotes; read-out: percentage inhibition of promastigotes (upper figure)): 53.1 ± 7.9% |
| COc1ccc(C(=O)/C=C/c2ccccc2)cc1 [drawing 66] | 2% | 7.5% | 91% | 100% | 20.6% | 26.3% | 68.1% | 85.5% |  |
| CC(C)=CCc1c(O)ccc(C(=O)/C=C/c2cc(O)c3c(c2)C=CC(C)(C)O3)c1O [drawing 97] |  |  |  |  |  |  |  | 18% |  |
| CC(C)=CCc1cc(/C=C/C(=O)c2ccc(O)c(CC=C(C)C)c2O)ccc1O [drawing 98] |  |  |  |  |  | 12% | 28% | 91% |  |
